Source: ChEMBL document CHEMBL4138175, “Newly designed organotin(IV) carboxylates with peptide linkage: Synthesis, structural elucidation, physicochemical characterizations and pharmacological investigations” (Eur J Med Chem, 2018)
Activity calls are given as the source filed them. The calls are words filed in the database; no cut-off is given here.

Assays:
[1] = system: Staphylococcus epidermidis; experiment: Antibacterial activity against Staphylococcus epidermidis assessed as zone of inhibition after 24 to 48 hrs by well diffusion method; type: functional
Klebsiella pneumoniae [2] = experiment: Antibacterial activity against Klebsiella pneumoniae assessed as zone of inhibition after 24 to 48 hrs by well diffusion method; type: functional
Staphylococcus aureus [3] = experiment: Antibacterial activity against Staphylococcus aureus assessed as zone of inhibition after 24 to 48 hrs by well diffusion method; type: functional
Pseudomonas aeruginosa [4] = experiment: Antibacterial activity against Pseudomonas aeruginosa assessed as zone of inhibition after 24 to 48 hrs by well diffusion method; type: functional
Serratia marcescens [5] = experiment: Antibacterial activity against Serratia marcescens assessed as zone of inhibition after 24 to 48 hrs by well diffusion method; type: functional
Escherichia coli [6] = experiment: Antibacterial activity against Escherichia coli assessed as zone of inhibition after 24 to 48 hrs by well diffusion method; type: functional
Streptococcus pyogenes = experiment: Antibacterial activity against Streptococcus pyogenes assessed as zone of inhibition after 24 to 48 hrs by well diffusion method; type: functional
Leishmania major [7] = experiment: Antileishmanial activity against Leishmania major promastigotes at 1 uM after 72 hrs by MTT assay relative to control; type: functional
Leishmania major [8] = experiment: Antileishmanial activity against Leishmania major promastigotes at 0.1 uM after 72 hrs by MTT assay relative to control; type: functional
Leishmania major [9] = experiment: Antileishmanial activity against Leishmania major promastigotes at 100 uM after 72 hrs by MTT assay relative to control; type: functional
Leishmania major [10] = experiment: Antileishmanial activity against Leishmania major promastigotes at 10 uM after 72 hrs by MTT assay relative to control; type: functional
Pseudomonas aeruginosa [11] = experiment: Antibacterial activity against Pseudomonas aeruginosa assessed as zone of inhibition by measuring activity index after 24 to 48 hrs by well diffusion method relative to penicillin G; type: functional, organism-based
NCI-H157 [12] = experiment: Cytotoxicity against human NCI-H157 cells at 100 uM after 48 hrs by sulforhodamine B assay; type: functional
NCI-H157 [13] = experiment: Cytotoxicity against human NCI-H157 cells at 10 uM after 48 hrs by sulforhodamine B assay; type: functional
DNA [14] = experiment: Binding affinity to single-stranded DNA (unknown origin) after 10 mins by UV-visible spectrometric method; type: nucleic-acid assay
Staphylococcus aureus [15] = experiment: Antibacterial activity against Staphylococcus aureus assessed as zone of inhibition by measuring activity index after 24 to 48 hrs by well diffusion method relative to amoxicillin; type: functional, organism-based
NCI-H157 [16] = experiment: Cytotoxicity against human NCI-H157 cells at 1 uM after 48 hrs by sulforhodamine B assay; type: functional
Staphylococcus aureus [17] = experiment: Antibacterial activity against Staphylococcus aureus assessed as zone of inhibition by measuring activity index after 24 to 48 hrs by well diffusion method relative to ampicillin; type: functional, organism-based
Serratia marcescens [18] = experiment: Antibacterial activity against Serratia marcescens assessed as zone of inhibition by measuring activity index after 24 to 48 hrs by well diffusion method relative to penicillin G; type: functional
Staphylococcus aureus [19] = experiment: Antibacterial activity against Staphylococcus aureus assessed as zone of inhibition by measuring activity index after 24 to 48 hrs by well diffusion method relative to tetracycline; type: functional, organism-based
[20] = system: Staphylococcus epidermidis; experiment: Antibacterial activity against Staphylococcus epidermidis assessed as zone of inhibition by measuring activity index after 24 to 48 hrs by well diffusion method relative to amoxicillin; type: functional, organism-based
NCI-H157 [21] = experiment: Cytotoxicity against human NCI-H157 cells after 48 hrs by sulforhodamine B assay; type: functional, cell-based
DNA [22] = experiment: Binding affinity to single-stranded DNA (unknown origin) assessed as red shift up to 72 uM after 10 mins by UV-visible spectrometric method; type: nucleic-acid assay
Serratia marcescens [23] = experiment: Antibacterial activity against Serratia marcescens assessed as zone of inhibition by measuring activity index after 24 to 48 hrs by well diffusion method relative to amoxicillin; type: functional
[24] = system: Staphylococcus epidermidis; experiment: Antibacterial activity against Staphylococcus epidermidis assessed as zone of inhibition by measuring activity index after 24 to 48 hrs by well diffusion method relative to tetracycline; type: functional, organism-based
NCI-H157 [25] = experiment: Cytotoxicity against human NCI-H157 cells at 0.1 uM after 48 hrs by sulforhodamine B assay; type: functional
Escherichia coli [26] = experiment: Antibacterial activity against Escherichia coli assessed as zone of inhibition by measuring activity index after 24 to 48 hrs by well diffusion method relative to tetracycline; type: functional
Klebsiella pneumoniae [27] = experiment: Antibacterial activity against Klebsiella pneumoniae assessed as zone of inhibition by measuring activity index after 24 to 48 hrs by well diffusion method relative to penicillin G; type: functional, organism-based
Staphylococcus aureus [28] = experiment: Antibacterial activity against Staphylococcus aureus assessed as zone of inhibition by measuring activity index after 24 to 48 hrs by well diffusion method relative to penicillin G; type: functional, organism-based
Pseudomonas aeruginosa [29] = experiment: Antibacterial activity against Pseudomonas aeruginosa assessed as zone of inhibition by measuring activity index after 24 to 48 hrs by well diffusion method relative to amoxicillin; type: functional, organism-based
Serratia marcescens [30] = experiment: Antibacterial activity against Serratia marcescens assessed as zone of inhibition by measuring activity index after 24 to 48 hrs by well diffusion method relative to ampicillin; type: functional
Pseudomonas aeruginosa [31] = experiment: Antibacterial activity against Pseudomonas aeruginosa assessed as zone of inhibition by measuring activity index after 24 to 48 hrs by well diffusion method relative to tetracycline; type: functional, organism-based
Klebsiella pneumoniae [32] = experiment: Antibacterial activity against Klebsiella pneumoniae assessed as zone of inhibition by measuring activity index after 24 to 48 hrs by well diffusion method relative to tetracycline; type: functional, organism-based
Klebsiella pneumoniae [33] = experiment: Antibacterial activity against Klebsiella pneumoniae assessed as zone of inhibition by measuring activity index after 24 to 48 hrs by well diffusion method relative to amoxicillin; type: functional, organism-based
Klebsiella pneumoniae [34] = experiment: Antibacterial activity against Klebsiella pneumoniae assessed as zone of inhibition by measuring activity index after 24 to 48 hrs by well diffusion method relative to ampicillin; type: functional, organism-based
Pseudomonas aeruginosa [35] = experiment: Antibacterial activity against Pseudomonas aeruginosa assessed as zone of inhibition by measuring activity index after 24 to 48 hrs by well diffusion method relative to ampicillin; type: functional, organism-based

Compound	inhibition zone (IZ) [1] [mm]	inhibition zone (IZ) (Klebsiella pneumoniae [2])	inhibition zone (IZ) (Staphylococcus aureus [3])	inhibition zone (IZ) (Pseudomonas aeruginosa [4])	inhibition zone (IZ) (Serratia marcescens [5]) [mm]	inhibition zone (IZ) (Escherichia coli [6]) [mm]	inhibition zone (IZ) (Streptococcus pyogenes) [mm]	Activity (Leishmania major [7]) [%]	Activity (Leishmania major [8]) [%]	Activity (Leishmania major [9]) [%]	Activity (Leishmania major [10]) [%]	Activity (NCI-H157 [12]) [%]	Activity (NCI-H157 [13]) [%]	Activity (NCI-H157 [16]) [%]	Activity index (Serratia marcescens [18])	Activity index [20]	Activity (NCI-H157 [21])	Activity index (Serratia marcescens [23])	Activity index [24]	Activity (NCI-H157 [25]) [%]	also measured
CC1(C)S[C@@H]2[C@H](NC(=O)[C@H](N)c3ccc(O)cc3)C(=O)N2[C@H]1C(=O)O [AMOXICILLIN]	2	6 mm	0 mm	6 mm	6	0	0	–	–	–	–	–	–	–	–	–	–	–	–	–	–
C[C@@H]1[C@H](O)[C@@H](C)/C=C/C=C/C=C/C=C/C=C/C=C/C=C/[C@H](O[C@@H]2O[C@H](C)[C@@H](O)[C@H](N)[C@@H]2O)C[C@@H]2O[C@](O)(C[C@@H](O)C[C@@H](O)[C@H](O)CC[C@@H](O)C[C@@H](O)CC(=O)O[C@H]1C)C[C@H](O)[C@H]2C(=O)O [AMPHOTERICIN B]	–	–	–	–	–	–	–	74.8	69.9	79.8	76.3	–	–	–	–	–	–	–	–	–	–
CC1(C)S[C@@H]2[C@H](NC(=O)[C@H](N)c3ccccc3)C(=O)N2[C@H]1C(=O)O [AMPICILLIN]	0	6 mm	0 mm	0 mm	8	0	0	–	–	–	–	–	–	–	–	–	–	–	–	–	–
CC1(C)S[C@@H]2[C@H](NC(=O)Cc3ccccc3)C(=O)N2[C@H]1C(=O)O [PENICILLIN G]	0	0 mm	0 mm	6 mm	8	0	0	–	–	–	–	–	–	–	–	–	–	–	–	–	–
CN(C)[C@@H]1C(O)=C(C(N)=O)C(=O)[C@@]2(O)C(O)=C3C(=O)c4c(O)cccc4[C@@](C)(O)[C@H]3C[C@@H]12 [TETRACYCLINE]	10	14 mm	0 mm	6 mm	0	2	0	–	–	–	–	–	–	–	–	–	–	–	–	–	–
(2,9-Dimethyl-1,10-Phenanthroline) trimethylstannyl 2-(4-methoxy-2-nitrophenylcarbamo-yl)benzoate	16	inactive	inactive	23 mm	15.7	1.53	5	56.7	52.1	62.1	59.5	52.8	50.3	48.6	1.96	8	Dose-dependent effect	2.61	1.6	45.5	Activity index (Pseudomonas aeruginosa [11]): 3.84; K (DNA [14]): 2 ×10⁴ /M; Activity_index (Staphylococcus aureus [15]): inactive; Activity_index (Staphylococcus aureus [17]): inactive; Activity_index (Staphylococcus aureus [19]): inactive; Activity (DNA [22]): < 3 nm; Activity index (Escherichia coli [26]): 0.77; Activity_index (Klebsiella pneumoniae [27]): inactive; Activity_index (Staphylococcus aureus [28]): inactive; Activity index (Pseudomonas aeruginosa [29]): 3.84; Activity index (Serratia marcescens [30]): 1.96; Activity index (Pseudomonas aeruginosa [31]): 3.84
Dibenzylstannanediyl bis 2-(4-methoxy-2-nitrophenylcarbamoyl)benzoate	11	15 mm	10.7 mm	14.3 mm	7.66	9	10.7	62.5	60.9	72.4	66.3	74.5	71.3	67.4	0.96	5.5	Dose-dependent effect	1.28	1.1	62.7	Activity index (Pseudomonas aeruginosa [11]): 2.39; Activity index (Klebsiella pneumoniae [32]): 1.07; Activity index (Klebsiella pneumoniae [33]): 2.5; Activity index (Escherichia coli [26]): 4.5; Activity index (Pseudomonas aeruginosa [29]): 2.39; Activity index (Klebsiella pneumoniae [34]): 2.5; Activity index (Serratia marcescens [30]): 0.96; Activity index (Pseudomonas aeruginosa [31]): 2.39
Dibutylstannanediyl bis 2-(4-methoxy-2-nitrophenylcarbamoyl)benzoate	15	26 mm	24 mm	inactive	18.3	19.3	6	49.6	47.6	54.2	50.6	55.5	52.6	47.4	2.29	7.5	Dose-dependent effect	3.05	1.5	43.9	Activity index (Klebsiella pneumoniae [32]): 1.88; Activity index (Klebsiella pneumoniae [33]): 4.34; Activity_index (Pseudomonas aeruginosa [35]): inactive; Activity index (Escherichia coli [26]): 9.67; Activity index (Klebsiella pneumoniae [34]): 4.34; Activity index (Serratia marcescens [30]): 2.29
Triphenylstannyl 2-(4-methoxy-2-nitrophenylcarbamoyl)benzoate	19	20.2 mm	4.66 mm	22.7 mm	4.66	11	11.7	53.6	50.7	64.3	59.4	61.7	58.4	55.7	0.58	9.5	Dose-dependent effect	0.78	1.9	52.3	Activity index (Pseudomonas aeruginosa [11]): 3.78; Activity index (Klebsiella pneumoniae [32]): 1.44; Activity index (Klebsiella pneumoniae [33]): 3.37; Activity index (Escherichia coli [26]): 5.5; Activity index (Pseudomonas aeruginosa [29]): 3.78; Activity index (Klebsiella pneumoniae [34]): 3.37; Activity index (Serratia marcescens [30]): 0.58; Activity index (Pseudomonas aeruginosa [31]): 3.78
